Experimental findings from patent publication US20210317092A1 (BAYER PHARMA AKTIENGESELLSCHAFT, priority 2016, published 2021) are described below.

pIC50: −log10 of the molar value.

The target of the first assay is T1, human Bradykinin B1 receptor (Homo sapiens, UniProt P46663).
T1 construct: host or cells: CHO-K1
T1 sequence (P46663 1-353): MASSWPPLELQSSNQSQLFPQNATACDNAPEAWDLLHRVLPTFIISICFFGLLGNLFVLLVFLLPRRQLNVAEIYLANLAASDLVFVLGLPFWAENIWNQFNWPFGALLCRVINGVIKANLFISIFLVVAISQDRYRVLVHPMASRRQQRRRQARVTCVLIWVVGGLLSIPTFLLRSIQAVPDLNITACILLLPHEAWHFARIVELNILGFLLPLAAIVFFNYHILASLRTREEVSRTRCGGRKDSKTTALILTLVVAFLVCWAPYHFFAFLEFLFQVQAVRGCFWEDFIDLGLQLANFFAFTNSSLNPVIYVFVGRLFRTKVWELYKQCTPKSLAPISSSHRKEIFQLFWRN
Nature of the assay: Calcium flux Assay (FLIPR) with recombinant CHO-K1 cells expressing human Bradykinin B1 receptor, in presence (hB1 IC50) or absence (hB1 free IC50) of 0.1% BSA. It is filed as cell-based. The settings on record: in absence of 0.1% BSA, read-out: hB1 free IC50. The procedure: The potency to inhibit the Bradykinin B1 receptor was determined for the compounds of this invention in a cell-based fluorescent calcium-mobilisation assay. The assay measures the ability of test compounds to inhibit Bradykinin B1 receptor agonist-induced increase of intracellular free Ca^2+ in the cell line expressing Bradykinin B1 receptor. […] The change of the intracellular Ca^2+ concentration is monitored with a fluorescent plate reader FLIPR TETRA® (Molecular Devices).
Calcium flux Assays (FLIPR) with cells expressing human Bradykinin B1 receptor (hB1)
CHO-K1 cell line expressing human Bradykinin B1 receptor was purchased from Euroscreen (Gosselies, Belgium, with reference name hB1-D1). The cells were grown in Nutrient Mixture Ham's F12 (Sigma) containing 10% Foetal bovine serum (Sigma) and 400 μg/mL G418 (Sigma), 5 μg/mL puromycim (Sigma). […]
Cells were seeded in a volume of 50 μL in medium without antibiotics and incubated overnight in a humidified atmosphere with 5% CO2 at 37° C. […] The calcium indicator loaded cells were incubated at 37° C. for 2 hrs. Extracellular dye was then removed and each well was filled with 45 μL of assay buffer. Cell plates were kept in dark until used. Compound examples were assayed at 8 concentrations in triplicate. Serial 10-fold dilutions in 100% DMSO were made at a 100-times higher concentration than the final concentration, and then diluted 1:10 in assay buffer. 5 μL of each diluted compound was added to the well of cell plates (yielding final concentration with 1% DMSO), and incubated for 30 min at 28° C. before the addition of Bradykinin B1 receptor agonist on the FLIPR instrument.
A peptide antagonist Lys-(Des-Arg-Leu)-Bradykinin (Bachem, Brackley) at 20 µM was used to determine the full inhibition as control.
Peak fluorescence was used to determine the response to agonist obtained at each concentration of compound examples by the following equation:
% Response=100*(RFU(compound)−RFU(control))/(RFU(DMSO)−RFU(control)) • RFU means relative fluorescence units. • Control means full inhibition by the peptide antagonist Lys-(Des-Arg-Leu)-Bradykinin at 20 µM.
The response values were plotted against the logarithm of the compound concentrations. The compound examples were tested in triplicates per plate and mean values were plotted in Excel XLfit to determine IC50 values, percentage of maximal inhibition and the Hill slopes.
In general terms: A change in cytosolic calcium serves as a functional read-out for many receptors and channels.
Broadly, the pIC50 is the negative decadic logarithm of the IC50, by convention in mol/L. Turning to “1-(3,4- difluorophenyl)- N-{3-(1H- tetrazol-5-yl)-4- [3-(2,2,2- trifluoroethyl)- 1H-pyrazol-1- yl]phenyl}cyclopro- panecarboxa- mide [Example 387]”, the pIC50 is 6.36. Same read-out and setting: the value for “1-(3- chlorophenyl)- N-[3-(1H- tetrazol-5-yl)- 6′- (trifluoromethyl)- 2,3′-bipyridin- 5- yl]cyclopropane carboxamide [Example 217]” was 6.29; that for “1-[2-fluoro-4- (trifluoromethoxy)- phenyl]-N-{3- (1H-tetrazol-5- yl)-4-[3-(2,2,2- trifluoroethyl)- 1H-pyrazol-1- yl]phenyl}cyclopro- panecarboxa- mide [Example 390]” was 7.85. With “1-[2-fluoro-4- (trifluoromethyl) phenyl]-N-[4- (4-isopropyl-1H- pyrazol-1-yl)-3- (1H-tetrazol-5- yl)phenyl]cyclopro- panecarboxa- mide [Example 399]”, the pIC50 is 8.29.

Consider `COc1ccc(-c2ccc(NC(=O)C3(c4ccccc4F)CC3(C)C)cc2-c2nnn[nH]2)cc1OC` (stereo not drawn) [Example 8, N-[3′,4′-dimethoxy-2-(1H-tetrazol-5-yl)biphenyl-4-yl]-1-(2-fluorophenyl)-2,2-dimethylcyclo-propane-carboxamide], for which the pIC50 was 6.47.

With `COc1ccc(-c2ccc(NC(=O)C3(c4ccc(C(F)(F)F)cc4F)CC3)cc2-c2nnn[nH]2)cc1OC` [Example 20, N-[3′,4′-dimethoxy-2-(1H-tetrazol-5-yl)biphenyl-4-yl]-1-[2-fluoro-4-(trifluoromethyl)phenyl] cyclopropane-carboxamide], the pIC50 was 7.53. For `COc1ccc(-c2ccc(NC(=O)C3(c4ccc(F)c(F)c4)CC3)cc2-c2nnn[nH]2)cc1OC` [Example 25, 1-(3,4-difluorophenyl)-N-[3′,4′-dimethoxy-2-(1H-tetrazol-5-yl)biphenyl-4-yl]cyclopropane-carboxamide], the pIC50 is 7.59.

The assay is the same for the next values; noted with them: in presence of 0.1% BSA, read-out: hB1 IC50.
Consider “1-(3- chlorophenyl)- N-[4′- (methoxymethyl)- 2-(1H- tetrazol-5- yl(biphenyl-4- yl]cyclopropane carboxamide [Example 123]”, for which the pIC50 was 6.19. The same measure, in the same setting: next, `COc1ccc(-c2ccc(NC(=O)C3(C4CCC(C)CC4)CC3)cc2-c2nnn[nH]2)cc1` (mixture of isomers) [Example 114, N-[4′-methoxy-2-(1H-tetrazol-5-yl)biphenyl-4-yl]-1-(4-methylcyclo-hexyl) cyclopropane carboxamide]: 5.87; `COc1ccc(-c2ccc(NC(=O)C3(C4CCC(C)CC4)CC3)cc2-c2nnn[nH]2)cc1OC` (single isomer, unassigned) [Example 52, N-[3′,4′-dimethoxy-2-(1H-tetrazol-5-yl)biphenyl-4-yl]-1-(4-methylcyclohexyl) cyclopropane carboxamide]: 6.91. As to `COc1ccc(-c2ccc(NC(=O)C3(C4CCC(C)CC4)CC3)cc2-c2nnn[nH]2)cc1` (single isomer, unassigned) [Example 113, N-[4′-methoxy-2-(1H-tetrazol-5-yl)biphenyl-4-yl]-1-(4-methylcyclo-hexyl) cyclopropane carboxamide], the pIC50 is 5.92. `COc1ccc(-c2ccc(NC(=O)C3(c4ccc(F)cc4F)CC3)cc2-c2nnn[nH]2)cc1OC` [Example 2, 1-(2,4-difluorophenyl)-N-[3′,4′-dimethoxy-2-(1H-tetrazol-5-yl)biphenyl-4-yl]cyclopropane carboxamide]: the pIC50 is 7.23. On the same count and under the same terms, next, `COc1ccc(-c2ccc(NC(=O)C3(c4ccccc4F)CC3)cc2-c2nnn[nH]2)cc1OC` [Example 3, N-[3′,4′-dimethoxy-2-(1H-tetrazol-5-yl)biphenyl-4-yl]-1-(2-fluorophenyl) cyclopropane-carboxamide]: 7.26; `COc1ccc(-c2ccc(NC(=O)C3(c4ccccc4OC(F)(F)F)CC3)cc2-c2nnn[nH]2)cc1OC` [Example 4, N-[3′,4′-dimethoxy-2-(1H-tetrazol-5-yl)biphenyl-4-yl]-1-[2-(trifluoro-methoxy)phenyl] cyclopropane-carboxamide]: 6.80; `COc1ccc(-c2ccc(NC(=O)C3(c4ccc(C)cc4)CC3(C)C)cc2-c2nnn[nH]2)cc1OC` (stereo not drawn) [Example 5, N-[3′,4′-dimethoxy-2-(1H-tetrazol-5-yl)biphenyl-4-yl]-2,2-dimethyl-1-(4-methylpheny) cyclopropane carboxamide]: 5.82. Consider `COc1ccc(-c2ccc(NC(=O)C3(c4ccc(F)cc4)CC3(C)C)cc2-c2nnn[nH]2)cc1OC` (stereo not drawn) [Example 6], for which the pIC50 was 5.86.

For `COc1ccc(-c2ccc(NC(=O)C3(c4ccccc4)CC3(C)C)cc2-c2nnn[nH]2)cc1OC` (stereo not drawn) [Example 7, N-[3′,4′-dimethoxy-2-(1H-tetrazol-5-yl)biphenyl-4-yl]-2,2-dimethyl-1-phenylcyclo-propane-carboxamide], the pIC50 is 5.87.

Take `COc1ccc(-c2ccc(NC(=O)C3(c4ccccc4F)CC3(C)C)cc2-c2nnn[nH]2)cc1OC` (stereo not drawn) [Example 8, N-[3′,4′-dimethoxy-2-(1H-tetrazol-5-yl)biphenyl-4-yl]-1-(2-fluorophenyl)-2,2-dimethylcyclo-propane-carboxamide]: the pIC50 was 6.46. On the same count and under the same terms, next, `COc1ccc(-c2ccc(NC(=O)C3(c4ccccn4)CC3)cc2-c2nnn[nH]2)cc1OC` [Example 9]: 6.18; `COc1ccc(-c2ccc(NC(=O)C3(c4cccc(F)c4)CC3)cc2-c2nnn[nH]2)cc1OC` [Example 10, N-[3′,4′-dimethoxy-2-(1H-tetrazol-5-yl)biphenyl-4-yl]-1-(3-fluorophenyl) cyclopropane-carboxamide]: 7.16. Still for that read-out and setting: the value for `COc1ccc(-c2ccc(NC(=O)C3(c4ccc(F)cc4)CC3)cc2-c2nnn[nH]2)cc1OC` [Example 11, N-[3′,4′-dimethoxy-2-(1H-tetrazol-5-yl)biphenyl-4-yl]-1-(4-fluorophenyl) cyclopropane-carboxamide] was 7.37; that for `COc1ccc(-c2ccc(NC(=O)C3(c4cc(F)cc(F)c4)CC3)cc2-c2nnn[nH]2)cc1OC` [Example 13, 1-(3,5-difluorophenyl)-N-[3′,4′-dimethoxy-2-(1H-tetrazol-5-yl)biphenyl-4-yl]cyclopropane carboxamide] was 7.06.

As for `COc1ccc(-c2ccc(NC(=O)C3(c4ccc(F)c(Cl)c4)CC3)cc2-c2nnn[nH]2)cc1OC` [Example 14, 1-(3-chloro-4-fluorophenyl)-N-[3′,4′-dimethoxy-2-(1H-tetrazol-5-yl)biphenyl-4-yl]cyclopropane carboxamide], the pIC50 is 7.00.

In the case of `COc1ccc(-c2ccc(NC(=O)C3(c4cc(F)cc(Cl)c4)CC3)cc2-c2nnn[nH]2)cc1OC` [Example 15, 1-(3-chloro-5-fluorophenyl)-N-[3′,4′-dimethoxy-2-(1H-tetrazol-5-yl)biphenyl-4-yl]cyclopropane carboxamide], the pIC50 is 7.39. Consider `COc1ccc(-c2ccc(NC(=O)C3(c4ccc(OC(F)(F)F)cc4)CC3)cc2-c2nnn[nH]2)cc1OC` [Example 19, N-[3′,4′-dimethoxy-2-(1H-tetrazol-5-yl)biphenyl-4-yl]-1-[4-(trifluoromethoxy)phenyl] cyclopropane-carboxamide], for which the pIC50 was 7.37.

With `COc1ccc(-c2ccc(NC(=O)C3(c4ccc(C(F)(F)F)cc4F)CC3)cc2-c2nnn[nH]2)cc1OC` [Example 20, N-[3′,4′-dimethoxy-2-(1H-tetrazol-5-yl)biphenyl-4-yl]-1-[2-fluoro-4-(trifluoromethyl)phenyl] cyclopropane-carboxamide], the pIC50 was 7.26. On the same count and under the same terms, the value for `COc1ccc(-c2ccc(NC(=O)C3(c4cc(F)ccc4F)CC3)cc2-c2nnn[nH]2)cc1OC` [Example 21, 1-(2,5-difluorophenyl)-N-[3′,4′-dimethoxy-2-(1H-tetrazol-5-yl)biphenyl-4-yl]cyclopropane carboxamide] was 6.44. In the case of `COc1ccc(-c2ccc(NC(=O)C3(c4cccc(OC(F)F)c4)CC3)cc2-c2nnn[nH]2)cc1OC` [Example 22, 1-[3-(difluoromethoxy)phenyl]-N-[3′,4′-dimethoxy-2-(1H-tetrazol-5-yl)biphenyl-4-yl]cyclopropane carboxamide], the pIC50 is 6.67. For `COc1ccc(C2(C(=O)Nc3ccc(-c4ccc(OC)c(OC)c4)c(-c4nnn[nH]4)c3)CC2)cc1F` [Example 24, N-[3′,4′-dimethoxy-2-(1H-tetrazol-5-yl)biphenyl-4-yl]-1-(3-fluoro-4-methoxyphenyl) cyclopropane-carboxamide], the pIC50 is 6.63. Same read-out and setting: the value for `COc1ccc(-c2ccc(NC(=O)C3(c4ccc(F)c(F)c4)CC3)cc2-c2nnn[nH]2)cc1OC` [Example 25, 1-(3,4-difluorophenyl)-N-[3′,4′-dimethoxy-2-(1H-tetrazol-5-yl)biphenyl-4-yl]cyclopropane-carboxamide] was 7.24.
